Read-outs that look alike come from different tables or passages of the source. Where a SMILES comes first, the peptide text is derived from it. The star is where a group is joined. Biotin = O=C1N[C@H]2[C@H](CS[C@H]2CCCCC(=O)*)N1; Ahx = NCCCCCC(=O)O
What was measured:
MOLP8 = test: Caspase-3/7 activation assay; format: cell-based
Experimental: (§4) Cells were plated at 3000 cells/well in 384-well white plates in corresponding cell growth media. […] Caspase-3/7 activation was subsequently determined using a Caspase-Glo 3/7 Reagent (Promega) and viability was assayed using the CellTiter-Glo Reagent (Promega) as described in manufacturer’s instructions. Dose–response curves for caspase-3/7 activation and viability were plotted and analyzed (including EC50 and GI50 determination) using GraphPad Prism.

MV411 = test: Caspase-3/7 activation assay; format: cell-based
Experimental: as §4

H23 = test: Caspase-3/7 activation assay; format: cell-based; settings: for EC50: caspase activation, Mcl-1-dependent cell line, read-out: NCI-H23, EC50; for NCI-H23 caspase pEC50: mean of log transformed data
Experimental: as §4

Bcl-2 = biological target: T1, Bcl-2 (Homo sapiens, UniProt P10415); test: TR-FRET binding assay; settings: binding to Bcl-2, used in Ki calculations; read-out: Peptide, Kd
T1 construct: C-Terminal 6His-tagged Bcl-2 protein from Bcl-2 (M1-F212); made in house; host or cells: E. coli
T1 sequence (P10415 1-212): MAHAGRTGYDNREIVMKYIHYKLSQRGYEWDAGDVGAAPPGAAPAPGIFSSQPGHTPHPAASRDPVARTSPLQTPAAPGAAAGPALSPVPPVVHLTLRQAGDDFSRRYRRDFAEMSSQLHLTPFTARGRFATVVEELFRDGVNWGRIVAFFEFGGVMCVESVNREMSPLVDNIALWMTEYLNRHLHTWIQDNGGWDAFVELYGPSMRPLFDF
From the text: (§1) N-terminal GST-tagged-Mcl-1 protein from Mcl-1 (E171-G327), N-terminal GST-tagged Bcl-xL protein from Bcl-xL (1-209), N-Terminal 6His-tagged Bfl-1 protein from Bfl-1 (M1-K151), N-Terminal 6His-tagged Bcl-w protein from Bcl-w (M1-R171), and C-Terminal 6His-tagged Bcl-2 protein from Bcl-2 (M1-F212) were expressed as a tagged fusion protein in E. coli and subsequently purified via Glutathione Sepharose-affinity or Ni-NTA resin purification, and size-exclusion chromatography.
(§2) For TR-FRET, tagged fusion proteins were incubated with a Europium-labeled antibody and a HyLite Fluor 647-labeled peptide, or a biotin-labeled peptide with a streptavidin-labeled ulight fluorophore allowing the assembly of donor and acceptor dye pairs for use in protein-binding assays.
(§3) The reaction final concentrations for Mcl-1 were 1.5 nM GST-Mcl-1, 0.5 nM LanthaScreen Eu tagged GST antibody (LifeTechnologies cat#PV5594), and 4 nM HyLite Fluor 647-labeled Bim peptide C (Hilyte647 C2 Maleimide)-[…]; for Bcl-xl were 2 nM GST-Bcl-xl, 2 nM LanthaScreen Eu-tagged GST antibody, and 10 nM HyLite Fluor 647-labeled BAK peptide C(Hilyte647 C2 Maleimide)-[…]; for Bfl-1 were 4 nM His-Bfl-1, 0.5 nM LanthaScreen Eu-tagged HIS antibody (PerkinElmer cat#AD0205), and 10 nM HyLite Fluor 647-labeled BIM peptide C(Hilyte647-C2-Maleimide)-[…]; for Bcl-2 and Bcl-w: 2 nM His-Bcl-2, or 2 nM His-Bcl-w, with 0.5 nM LanthaScreen Eu-tagged HIS antibody, 10 nM biotin-labeled Bim peptide (Biotin-lc-[…]), and 2.4 nM a streptavidin labeled ULight Fluorophore (PerkinElmer cat#TRF0102-D). Reactions were incubated at 24 °C for 120–180 min before reading on a Tecan (InfiniteM1000 spectrofluorometer) with excitation at 340 nm and emission at […] and 665 nm. Ratio of fluorescent emission intensity at 665–620 nm was calculated for each reaction (equation 1). Percent inhibition was calculated based upon min (control compound) vs. max (DMSO) according to Eq. (2) and the IC50 was derived the smart fit curve (Genedata screener) of % inhibition vs. concentration. Ki values were calculated from Eq. […]

Bcl-w = biological target: T2, Bcl-w (Homo sapiens, UniProt Q92843); test: TR-FRET binding assay; settings: binding to Bcl-w, used in Ki calculations; read-out: Peptide, Kd
T2 construct: N-Terminal 6His-tagged Bcl-w protein from Bcl-w (M1-R171); made in house; host or cells: E. coli
T2 sequence (Q92843 1-171): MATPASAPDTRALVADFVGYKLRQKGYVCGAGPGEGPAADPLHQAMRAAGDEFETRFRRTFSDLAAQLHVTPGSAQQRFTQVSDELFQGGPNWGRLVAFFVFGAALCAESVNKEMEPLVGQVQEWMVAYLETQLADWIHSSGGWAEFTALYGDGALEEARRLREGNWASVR
From the text: as §1, §2, §3

Mcl-1 [1] = biological target: T3, Mcl-1 (Homo sapiens, UniProt Q07820); test: TR-FRET binding assay; set-up: N-terminal GST-tagged-Mcl-1 protein from Mcl-1 (E171-G327); made in house; host or cells: E. coli
T3 sequence (Q07820 171-327): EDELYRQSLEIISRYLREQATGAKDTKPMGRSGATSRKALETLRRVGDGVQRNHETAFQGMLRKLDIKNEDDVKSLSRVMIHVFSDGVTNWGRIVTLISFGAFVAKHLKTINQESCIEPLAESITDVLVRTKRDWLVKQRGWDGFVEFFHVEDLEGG
Experimental: Percent inhibition was calculated based upon min (control compound) vs. max (DMSO) according to Eq. (2) and the IC50 was derived the smart fit curve (Genedata screener) of % inhibition vs. concentration. Ki values were calculated from Eq.

Mcl-1 [2] = biological target: T3, Mcl-1; test: SPR direct binding assay; set-up: 6His-tagged Mcl-1 protein (E171-G327) was immobilized using NTA capture-coupling
Experimental: A Biacore T200 instrument (GE Healthcare) was used to monitor binding interactions using a direct binding assay format. 6His-tagged Mcl-1 protein (E171-G327) was immobilized using NTA capture-coupling at a flow rate of 10 μL min^-1 and using an immobilization running buffer containing 10 mM HEPES, 300 mM NaCl, 1 mM TCEP, and 0.05% Tween-20 at 25 °C. […] Approximately 300 response units of Mcl-1 protein (2 μg mL^-1 in immobilization running buffer) were immobilized using the ‘aim for’ function in the T200 Control Software (GE Healthcare). Remaining reactive esters were blocked using a 7 min injection of 1 M ethanolamine. Reference flow cells were prepared without protein. All binding measurements were performed in 10 mM Tris, pH 7.5, 300 mM NaCl, 1 mM TCEP, 1% DMSO, and 0.02% Tween-20 at 25 °C at a flow rate of 30 μL min^-1. Buffer was primed through the instrument overnight to stabilize the surface before subsequent assay steps. Prior to kinetic analysis, solvent calibration and double referencing subtractions were made to eliminate bulk refractive index changes, injection noise, and data drift. Affinity and binding kinetic parameters were determined by global fitting to a 1:1-binding model within the Biacore T200 Evaluation Software (GE Healthcare).

MOLM-13 leukemic cells = test: MOLM-13 disseminated AML model; format: in vivo, mice; settings: venetoclax 100 mg kg^−1 p.o. daily, AZD5991 60 mg kg^−1 i.v. weekly, after 10 days
From the text: MOLM-13: These studies complied with all relevant ethical regulations described in the guidelines established by GV-SOLAS Institutional Animal Care and Use Committee. Female CIEA-NOG mice were purchased from Taconic. Mice between 5 and 8 weeks old were tail vein injected with five million MOLM-13 cells. Treatment started 3 days after implantation. AZD5991, venetoclax, and vehicle were formulated and administered as mentioned above. Bone marrow and peripheral blood were collected 10 days post-treatment initiation, followed by red cell lysis (ACK lysis buffer), washes with FC buffer (PBS + 2% FCS) and cell staining with AquaZombie live/dead stain (cat#423102, Biolegend) containing antibodies against human CD45 (cat#564105, BDBiosciences) and human HLA-ABC (cat#561346, BDBiosciences) or isotype controls (mIgG1 cat#552834, BDBiosciences; mIgG1 cat#561504, BDBiosciences). Samples were washed with FC buffer and data acquired on an Attune NXT cytometer and analyzed using FlowJo software. Gating was performed on single/live/FCS vs. SSC/HLA-ABC vs. hCD45 double positive cells (Supplementary Figure 8).

Nomo1 = test: Caspase-3/7 activation assay; format: cell-based; settings: Homo sapiens, NOMO-1, 6 h, read-out: 6h caspase EC50; NOMO1, single agent
Experimental: as §4

MOLM13 = test: Caspase-3/7 activation assay; format: cell-based; settings: Homo sapiens, MOLM-13, 6 h, read-out: 6h caspase EC50; MOLM13, single agent
Experimental: as §4

ME1 = test: Caspase-3/7 activation assay; format: cell-based; settings: ME-1, 6 h, read-out: 6h caspase EC50; ME1, single agent
Experimental: as §4

KG1 = test: Caspase-3/7 activation assay; format: cell-based; settings: Homo sapiens, KG-1, 6 h, read-out: 6h caspase EC50; KG1, single agent
Experimental: as §4

NB4 = test: Caspase-3/7 activation assay; format: cell-based; settings: Homo sapiens, NB-4, 6 h, read-out: 6h caspase EC50; NB4, single agent
Experimental: as §4

OCIAML3 = test: Caspase-3/7 activation assay; format: cell-based; settings: Homo sapiens, OCI-AML-3, 6 h, read-out: 6h caspase EC50; OCIAML3, single agent
Experimental: as §4

HEL92.1.7 = test: Caspase-3/7 activation assay; format: cell-based; settings: Homo sapiens, HEL 92.1.7, 6 h, read-out: 6h caspase EC50; HEL9217, single agent
Experimental: as §4

OCIAML5 = test: Caspase-3/7 activation assay; format: cell-based; settings: Homo sapiens, OCI-AML-5, 6 h, read-out: 6h caspase EC50; OCIAML5, single agent
Experimental: as §4

OCIM1 = test: Caspase-3/7 activation assay; format: cell-based; settings: OCI-M1, 6 h, read-out: 6h caspase EC50; OCIM1, single agent
Experimental: as §4

CMK = test: Caspase-3/7 activation assay; format: cell-based; settings: Homo sapiens, 6 h, read-out: 6h caspase EC50; CMK, single agent
Experimental: as §4

[3] = caspase activation, Mcl-1-dependent cell line, read-out: MOLP-8, EC50
[4] = caspase activation, Mcl-1-dependent cell line, read-out: MV4-11, EC50

| EC50 (MOLP8; [3]) [nM] | MOLP-8 caspase pEC50 (MOLP8; mean of log transformed data) | EC50 (MV411; [4]) [nM] | MV4-11 caspase pEC50 (MV411; mean of log transformed data) | EC50 (H23) [nM] | NCI-H23 caspase pEC50 (H23) | IC50 (Mcl-1 [1]; read-out: Mcl-1 FRET, IC50) [nM] | Kd (Mcl-1 [2]; read-out: Mcl-1 SPR, Kd) [nM] | Structure (SMILES) | also measured |
| --- | --- | --- | --- | --- | --- | --- | --- | --- | --- |
| – | – | – | – | – | – | – | – | CC[C@H](C)[C@H](NC(=O)[C@H](CCCNC(=N)N)NC(=O)[C@H](CCCNC(=N)N)NC(=O)[C@H](CC(C)C)NC(=O)[C@H](CCC(=O)O)NC(=O)[C@H](CC(N)=O)NC(=O)[C@H](C)NC(=O)[C@@H](NC(=O)[C@H](Cc1c[nH]c2ccccc12)NC(=O)[C@@H](NC(=O)[C@H](CCC(=O)O)NC(=O)[C@@H]1CCCN1C(=O)[C@H](CCCNC(=N)N)NC(=O)[C@H](CCSC)NC(=O)CNC(=O)CNC(=O)CCCCCNC(=O)CCCC[C@@H]1SC[C@@H]2NC(=O)N[C@@H]21)[C@@H](C)CC)[C@@H](C)CC)C(=O)NCC(=O)N[C@@H](CC(=O)O)C(=O)N[C@@H](CCC(=O)O)C(=O)N[C@@H](Cc1ccccc1)C(=O)N[C@@H](CC(N)=O)C(=O)N[C@@H](C)C(=O)O [Biotin Bim peptide(biotin-Ic-), reference compound] ({Biotin-Ahx}-GGMRPEIWIANELRRIGDEFNA-OH) | Kd (Bcl-2): 5 nM; Kd (Bcl-w): 10 nM |
| – | – | – | – | – | – | 1100 | – | Cc1ccccc1-c1cccc2c(CCCOc3cccc4c3CCCC4)c(C(=O)O)[nH]c12 [Compound 1, reference compound] | – |
| – | – | – | – | – | – | 770 | – | Cc1c(-c2cccc3c(CCCOc4cccc5ccccc45)c(C(=O)O)[nH]c23)c(CSCc2nn(C)c(C)c2-c2cccc3c(CCCOc4cccc5ccccc45)c(C(=O)O)[nH]c23)nn1C [Compound 3] | – |
| – | – | – | – | – | – | 19 | 47 | Cc1c2c(nn1C)CSCc1cc(n(C)n1)CSc1cc(c3ccccc3c1)OCCCc1c(C(=O)O)[nH]c3c-2cccc13 [Compound 5] | EC50 (MOLP8; Homo sapiens, MOLP-8, caspase activation, Mcl-1-dependent cell line, read-out: MOLP-8, EC50): > 31500 nM; EC50 (MOLP8; Homo sapiens, MOLP-8, mean of log transformed data, read-out: MOLP-8 caspase pEC50 (converted)): > 31600 nM; EC50 (MV411; Homo sapiens, MV4-11, caspase activation, Mcl-1-dependent cell line, read-out: MV4-11, EC50): > 31500 nM; EC50 (MV411; Homo sapiens, MV4-11, mean of log transformed data, read-out: MV4-11 caspase pEC50 (converted)): > 31600 nM; Kd (Mcl-1 [2]; mean of log transformed data, read-out: MCL1 SPR pKd (converted)): 46.8 nM; IC50 (Mcl-1 [1]; mean of log transformed data, read-out: MCL1 FRET pIC50 (converted)): 19.1 nM |
| 660 | 6.18 | 1050 | 5.98 | 5750 | 5.24 | 4 | 8 | Cc1c2c(nn1C)CSCc1cc(n(C)n1)CSc1cc(c3ccccc3c1)OCCCc1c(C(=O)O)n(C)c3c-2cccc13 [Compound 6] | MCL1 SPR pKd (Mcl-1 [2]; mean of log transformed data): 8.10; MCL1 FRET pIC50 (Mcl-1 [1]; mean of log transformed data): 8.37 |
| 3550 | 5.45 | 1860 | 5.73 | 20900 | 4.68 | 6 | 11 | Cc1nn(C)c(COc2ccc(N3CCN(S(=O)(=O)N(C)C)CC3)cc2)c1-c1cccc2c(CCCOc3cccc4ccccc34)c(C(=O)O)n(CCN3CCOCC3)c12 [Compound 8, A-1210477, reference compound] | MCL1 SPR pKd (Mcl-1 [2]; mean of log transformed data): 7.94; MCL1 FRET pIC50 (Mcl-1 [1]; mean of log transformed data): 8.20 |
| – | – | – | – | – | – | – | – | CC1(C)CCC(CN2CCN(c3ccc(C(=O)NS(=O)(=O)c4ccc(NCC5CCOCC5)c([N+](=O)[O-])c4)c(Oc4cnc5[nH]ccc5c4)c3)CC2)=C(c2ccc(Cl)cc2)C1 [venetoclax, reference compound] | percentage of HLA-ABC+ hCD45+ leukemic cells in peripheral blood vs. vehicle (MOLM-13 leukemic cells): significantly reduced; EC50 (MV411; Homo sapiens, MV4-11, 6 h, read-out: 6h caspase EC50, MV411, single agent): 45.2 nM; EC50 (Nomo1): > 333 nM; EC50 (MOLM13): 9.66 nM; EC50 (ME1): 10.2 nM; EC50 (KG1): 269 nM; EC50 (NB4): 27.5 nM; EC50 (OCIAML3): > 333 nM; EC50 (HEL92.1.7): > 333 nM; EC50 (OCIAML5): 73 nM; EC50 (OCIM1): > 333 nM; EC50 (CMK): > 333 nM |

| Structure (SMILES) | EC50 (MOLP8; [3]) [nM] | MOLP-8 caspase pEC50 (MOLP8; mean of log transformed data) | EC50 (MV411; [4]) [nM] | MV4-11 caspase pEC50 (MV411; mean of log transformed data) | EC50 (H23) [nM] | NCI-H23 caspase pEC50 (H23) | IC50 (Mcl-1 [1]; read-out: Mcl-1 FRET, IC50) [nM] | Kd (Mcl-1 [2]; read-out: Mcl-1 SPR, Kd) [nM] | also measured |
| --- | --- | --- | --- | --- | --- | --- | --- | --- | --- |
| Cc1c2c(nn1C)CSCc1cc(n(C)n1)CSc1cc(c3ccccc3c1)OCCCc1c(C(=O)O)n(C)c3c-2c(Cl)ccc13 (atropisomer, axis not shown; (Sa)) [(Sa)-7] | > 16000 | < 4.8 | > 16000 | < 4.8 | > 25000 | < 4.6 | – | – | – |
